A short description of test [1]: Inhibition of Mycobacterium tuberculosis DNA LigA using 22-mer and 18-mer DNA complementary strand as substrate after 1 hr by 15% polyacrylamide gel electrophoresis.
Test [2] can be described thus: Inhibition of Bacteriophage […] using 22-mer and 18-mer DNA complementary strand as substrate after 1 hr by 15% polyacrylamide gel electrophoresis. The arrangement: species or system Tequatrovirus T4.
A short description of test [3]: Ratio of IC50 for Bacteriophage T4 DNA ligase to IC50 for Mycobacterium tuberculosis DNA LigA.
Test [4] concerns Escherichia coli. Nature of the test: Antibacterial activity against Escherichia coli GR501 harboring temperature sensitive lig251 mutant rescued with T4 DNA ligase after 20 hrs. It counts as functional.
Test [5] can be described thus: Ratio of IC50 for human DNA ligase 1 to IC50 for Mycobacterium tuberculosis DNA LigA.
Test [6] deals with Salmonella typhimurium. The test can be described thus: Antibacterial activity against Salmonella typhimurium LT2 expressing LigA after 20 hrs. The test is classed as functional.
In test [7] the test system is Salmonella typhimurium. The test can be described thus: Antibacterial activity against Salmonella typhimurium TT15151 harboring LigA null mutant rescued with ATP-dependent DNA ligase after 20 hrs. The test is classed as functional.
For test [8], the system named is Escherichia coli. The test can be described thus: Binding affinity to Escherichia coli pUC18 DNA after 1 hr by gel shift assay. In general terms: In EMSA bound probe runs differently from free probe, usually more slowly.
For the next test, the species on record is Bos taurus. The test can be described thus: Displacement of ethidium bromide from calf thymus DNA assessed as relative fluorescence intensity at 250 uM.
The target in another test is DNA ligase 1 (Homo sapiens, UniProt P18858). The test can be described thus: Inhibition of human DNA ligase 1 expressed in Escherichia coli BL21 (DE3) using 22-mer and 18-mer DNA complementary strand as substrate after 1 hr by 15% polyacrylamide gel electrophoresis.
For test [9], the system named is Salmonella typhimurium. Nature of the test: Bactericidal activity against Salmonella typhimurium TT15151 harboring LigA null mutant rescued with ATP-dependent DNA ligase assessed as bacterial cell viability at 0.5 to 2.5 times MIC after 5 hrs. The note with it: Salmonella enterica subsp. enterica serovar Typhimurium. The test is classed as functional, organism-based.

Test [10] in a line: Competitive inhibition of Mycobacterium tuberculosis DNA LigA using NDA+ as substrate by double reciprocal plot analysis.
Test [11] relates to Salmonella typhimurium. The test can be described thus: Bactericidal activity against Salmonella typhimurium LT2 expressing LigA assessed as bacterial cell viability at 0.5 to 2.5 times MIC after 5 hrs. The test is classed as functional, organism-based. The following applies: Salmonella enterica subsp. enterica serovar Typhimurium.
The mark [12] stands for this setting: Salmonella enterica subsp. enterica serovar Typhimurium.
[13] abbreviates: Salmonella enterica, TT15151, 20 h.

pIC50, pKi: −log10 of the molar value. In brackets after ≈: the same amount, converted by molar mass. Activity calls are given as the source filed them. The calls are words filed in the database; no cut-off is given here.

Sequence of DNA ligase 1 (P18858 whole entry): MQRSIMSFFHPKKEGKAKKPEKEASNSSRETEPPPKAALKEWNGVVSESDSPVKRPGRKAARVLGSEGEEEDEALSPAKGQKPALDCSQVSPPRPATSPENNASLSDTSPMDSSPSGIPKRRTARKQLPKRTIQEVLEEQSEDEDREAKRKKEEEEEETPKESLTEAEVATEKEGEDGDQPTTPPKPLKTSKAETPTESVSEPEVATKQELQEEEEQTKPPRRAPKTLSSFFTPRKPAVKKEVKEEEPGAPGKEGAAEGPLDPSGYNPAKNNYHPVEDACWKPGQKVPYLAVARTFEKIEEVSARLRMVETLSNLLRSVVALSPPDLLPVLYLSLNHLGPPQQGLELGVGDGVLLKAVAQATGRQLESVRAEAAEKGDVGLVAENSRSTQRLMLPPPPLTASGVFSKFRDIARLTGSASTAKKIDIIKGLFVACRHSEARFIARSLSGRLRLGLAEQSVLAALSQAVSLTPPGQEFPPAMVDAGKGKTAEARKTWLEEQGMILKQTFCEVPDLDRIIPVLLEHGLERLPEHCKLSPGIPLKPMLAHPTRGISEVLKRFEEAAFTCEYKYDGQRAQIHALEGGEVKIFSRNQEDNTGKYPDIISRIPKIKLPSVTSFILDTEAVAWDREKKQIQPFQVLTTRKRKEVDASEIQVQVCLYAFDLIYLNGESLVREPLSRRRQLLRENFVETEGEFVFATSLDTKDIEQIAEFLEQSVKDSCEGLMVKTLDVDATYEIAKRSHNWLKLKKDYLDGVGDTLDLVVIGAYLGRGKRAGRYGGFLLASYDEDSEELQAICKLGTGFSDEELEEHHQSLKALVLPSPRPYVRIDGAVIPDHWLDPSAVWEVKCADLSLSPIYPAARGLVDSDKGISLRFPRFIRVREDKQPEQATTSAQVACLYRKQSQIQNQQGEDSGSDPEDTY

In general, pIC50 refers to the negative decadic logarithm of the IC50, by convention in mol/L. Low values mean a high IC50, high ones a low IC50. As a reminder, the MIC is the lowest concentration that inhibits growth of the organism. Take `O=C(NO)c1ccc2ccccc2c1OCc1ccc(Cl)c(Cl)c1`: the pIC50 is 4.97 in [1] and 5.26 in test [2]. Moreover, the Ratio IC50 in test [3] and in [5] was 10 in each case. The MIC against Escherichia coli [4] (GR501, 20 h) is above 200 mg/L.

As to `C=CCOc1c(OCc2ccccc2)cccc1C(=O)NO`, the MIC entry in the test with Salmonella typhimurium [6] (setting [12]), with Salmonella typhimurium [7] (setting [12]) and in the test on Escherichia coli [4] was “inactive” in each case.

Consider `CCCCCCOc1c(C(=O)NO)ccc2ccccc12`, for which the negative logarithm of the IC50 (pIC50) is 4.87 in [1] and 5.02 in [2]. In addition, the Ratio IC50 in test [3] and in test [5] was 10 throughout. In the test with Escherichia coli [4] (GR501, 20 h), this molecule gave a minimum inhibitory concentration (MIC) above 200 mg/L.

Consider `C=CCOc1ccc(OCc2ccccc2)cc1C(=O)NO`, for which the MIC entry in the test with Salmonella typhimurium [6] (setting [12]) was “inactive”. Besides, the MIC in the test with Salmonella typhimurium [7] (setting [13]) turned out to be 150 mg/L (≈ 501 µM); against Escherichia coli [4] (GR501, 20 h), 400 mg/L (≈ 1340 µM).

Turning to `C=CCOc1ccc(OCc2cc(Cl)ccc2Cl)cc1C(=O)NO`, in the test on Salmonella typhimurium [6] (setting [12]), the MIC entry was “inactive”. In addition, the MIC with Salmonella typhimurium [7] (setting [13]) was 800 mg/L (≈ 2170 µM); against Escherichia coli [4] (GR501, 20 h) it was 400 mg/L (≈ 1090 µM).

`C=CCOc1cc(OCc2ccc(Br)cc2)ccc1C(=O)NO`: the MIC result in the test with Salmonella typhimurium [6] (setting [12]) and with Escherichia coli [4] was “inactive” in each case. Besides, inhibition of growth with Salmonella typhimurium [7] (setting [13]) (MIC) required 40 mg/L (≈ 106 µM).

For `C=CCOc1cccc(C(=O)NO)c1OCC=C`, the MIC result in the test on Salmonella typhimurium [6] (setting [12]) and in the test with Escherichia coli [4] was “inactive” in each case. In the test with Salmonella typhimurium [7] (setting [13]), it took 400 mg/L (≈ 1600 µM) to inhibit growth (MIC).

For the molecule `C=CCOc1ccc(OCC=C)c(C(=O)NO)c1`, the MIC entry with Salmonella typhimurium [6] (setting [12]) was “inactive”. Also, the minimum inhibitory concentration (MIC) against Salmonella typhimurium [7] (setting [13]) stood at 150 mg/L (≈ 602 µM); against Escherichia coli [4] (GR501, 20 h), 200 mg/L (≈ 802 µM).

For `O=C(NO)c1ccccc1OCc1cccc(Cl)c1`, the pIC50 in test [1] is 4.62; in test [2], 5.10. Besides, the Ratio IC50 in test [3] and in test [5] was 10 throughout. Moreover, in the test on Escherichia coli [4], the MIC result is “inactive”.

`O=C(NO)c1ccccc1OCC(O)Cn1cc(-c2ccccc2)nn1` (stereo not drawn): the MIC was 30 mg/L (≈ 84.7 µM) in the test with Salmonella typhimurium [6] (Salmonella enterica, LT2, 20 h); 50 mg/L (≈ 141 µM) in the test with Salmonella typhimurium [7] (setting [13]); 40 mg/L (≈ 113 µM) against Escherichia coli [4] (GR501, 20 h). For the same molecule, the result with Escherichia coli [8] and in the test listed under Bos taurus was inactive. Also, the negative logarithm of the IC50 (pIC50) in test [1] is 4.94; in [2] it was 4.50; at DNA ligase 1 it was 4.38. In addition, the Ratio IC50 in test [3] and in test [5] was 10 in each case.

As to `C#CCOc1ccc(OCC=C)c(C(=O)NO)c1`, the MIC was 600 mg/L (≈ 2430 µM) against Salmonella typhimurium [6] (Salmonella enterica, LT2, 20 h) and 150 mg/L (≈ 607 µM) against Escherichia coli [4] (GR501, 20 h). The MIC result in the test with Salmonella typhimurium [7] (setting [12]) is “inactive”.

In the case of `O=C(NO)c1ccccc1OCc1ccc(Cl)c(Cl)c1`, the pIC50 in [1] was 4.70; in test [2], above 4.70. Also, the Ratio IC50 in test [3] and in [5] was 10 throughout. In addition, the MIC entry in the test on Escherichia coli [4] is “inactive”.

On to `C=CCOc1ccc(C(=O)NO)c(OCC=C)c1`, for which the MIC was 800 mg/L (≈ 3210 µM) against Salmonella typhimurium [6] (Salmonella enterica, LT2, 20 h) and 150 mg/L (≈ 602 µM) in the test with Escherichia coli [4] (GR501, 20 h). For the same molecule, in the test with Salmonella typhimurium [7] (setting [12]), the MIC entry is “inactive”.

In the case of `C=CCOc1ccc(OCc2ccc(Br)cc2)cc1C(=O)NO`, in the test on Salmonella typhimurium [6] (setting [12]), the MIC entry is “inactive”. Further, the MIC in the test with Salmonella typhimurium [7] (setting [13]) turned out to be 20 mg/L (≈ 52.9 µM); in the test with Escherichia coli [4] (GR501, 20 h), 80 mg/L (≈ 212 µM).

As to `O=C(NO)c1ccc2ccccc2c1OCc1cccc(Cl)c1`, the results for the pIC50 in [1] and in [2] were 4.70 and 4.92, respectively. Also, the Ratio IC50 in test [3] and in test [5] was 10 throughout. Moreover, in the test with Escherichia coli [4], the MIC entry was “inactive”.

With `C=CCOc1cc(OCc2cc(Cl)ccc2Cl)ccc1C(=O)NO`, the MIC entry in the test with Salmonella typhimurium [6] (setting [12]) and with Escherichia coli [4] was “inactive” each time. This molecule also yielded an MIC against Salmonella typhimurium [7] (setting [13]) of 200 mg/L (≈ 543 µM).

Usually pKi stands for −log10 of the Ki, conventionally taken in molar units. A lower pKi goes with a large Ki. On to `C=CCOc1ccccc1C(=O)NO`, for which the result with Salmonella typhimurium [9] and with Salmonella typhimurium [11] was Active. Also, the MIC with Salmonella typhimurium [6] (Salmonella enterica, LT2, 20 h) was determined as 20 mg/L (≈ 104 µM); against Salmonella typhimurium [7] (setting [13]) it was 70 mg/L (≈ 362 µM); in the test with Escherichia coli [4] (GR501, 20 h) it was 90 mg/L (≈ 466 µM). Besides, the negative logarithm of the Ki (pKi) in [10] is 5.37. Further, the outcome in the test on Escherichia coli [8] and in the test listed under Bos taurus was inactive. The negative logarithm of the IC50 (pIC50) is 5.15 in [1], 4.21 in [2] and 4.23 on DNA ligase 1. In addition, the Ratio IC50 in [3] and in test [5] was 10 each time.

Values taken from ChEMBL document CHEMBL3217442, “Synthesis and bioevaluation of aryl hydroxamates distinguishing between NAD+ and ATP-dependent DNA ligases” (Medchemcomm, 2012).
